In general, MIC refers to the smallest concentration in the dilution series that meets the test's criterion for growth inhibition. A low value points to inhibition by little substance.

≈ marks a conversion by molar mass, not a printed value.

One test has as its system H. pylori. Kind of test: MIC given in Table 1 beside eradication in H. pylori-infected Mongolian gerbils. It is filed as cell-based. Conditions: Helicobacter pylori. The protocol: Clinically isolated strains (18 strains) were cultured using 5% horse serum under microaerophilic conditions at 37° C. for 72 hours and diluted with Brucella broth to give a bacterial solution at about 10^6 cells/ml. The diluted bacterial solution was inoculated with a microplanter on an agar plate containing 2-fold dilution concentration series of test compound and cultured under 8% CO2 at 37° C. for 3 to 4 days. Thereafter, the minimum growth inhibitory concentration (MIC) was measured. MIC50 (minimum concentration to inhibit growth in 50% of the test strains) and MIC90 (minimum concentration to inhibit growth in 90% of the test strains) were calculated from the obtained values. To a male 7-week-old Mongolian gerbil after fasting for about 20 hours, was inoculated orally a culture broth of H. pylori ATCC 43504 Type strain upon 24 hours of culture. After administration of the culture broth, the Mongolian gerbil was fasted and deprived of water for about 4 hours, after which a normal solid feed and drinking water were given to Mongolian gerbils infected with H. pylori. Starting from 6 weeks after infection, the drug was orally administered twice a day for 7 days. […] The medium was incubated under CO2 and the colonies of H. pylori were counted. A case where colonies were not detected was evaluated as the case of bacterial eradication.

Test [1] concerns H. pylori ATCC 43504 Type strain. Description: Bacterial eradication in H. pylori-infected Mongolian gerbils, drug orally twice a day for 7 days. It is filed as in vivo, Mongolian gerbil. Conditions: bid, oral. How it is done:
To a male 7-week-old Mongolian gerbil after fasting for about 20 hours, was inoculated orally a culture broth of H. pylori ATCC 43504 Type strain upon 24 hours of culture. After administration of the culture broth, the Mongolian gerbil was fasted and deprived of water for about 4 hours, after which a normal solid feed and drinking water were given to Mongolian gerbils infected with H. pylori. Starting from 6 weeks after infection, the drug was orally administered twice a day for 7 days. After completion of the drug administration, Mongolian gerbils were sacrificed at day 3. The stomach was excised and incised along greater curvature, and its content was removed. The stomach was homogenized in 10 ml of phosphate buffer--physiological saline in a homogenizer. The homogenate was appropriately diluted with the same buffer and 0.1 ml of sample was plated onto H. pylori selective medium. The medium was incubated under CO2 and the colonies of H. pylori were counted. A case where colonies were not detected was evaluated as the case of bacterial eradication.

Test [2] concerns H. pylori clinically isolated strains (18 strains). Description: In vitro antibacterial activity against H. pylori clinically isolated strains (agar dilution MIC). It counts as cell-based. Conditions: Helicobacter pylori, 18 clinically isolated strains, agar plate, 8% CO2, 37° C., 3 to 4 days. How it is done: Clinically isolated strains (18 strains) were cultured using 5% horse serum under microaerophilic conditions at 37° C. for 72 hours and diluted with Brucella broth to give a bacterial solution at about 10^6 cells/ml. The diluted bacterial solution was inoculated with a microplanter on an agar plate containing 2-fold dilution concentration series of test compound and cultured under 8% CO2 at 37° C. for 3 to 4 days. Thereafter, the minimum growth inhibitory concentration (MIC) was measured. MIC50 (minimum concentration to inhibit growth in 50% of the test strains) and MIC90 (minimum concentration to inhibit growth in 90% of the test strains) were calculated from the obtained values.
A general note: Agar dilution tests growth on a series of plates holding different concentrations.

The subject of test [3] is H. pylori ATCC 43504 Type strain. Kind of test: Bacterial eradication in H. pylori-infected Mongolian gerbils, alone or combined with famotidine, twice a day for 3 days. It is filed as in vivo, Mongolian gerbil. Conditions: bid. How it is done: To a male 7-week-old Mongolian gerbil after fasting for about 20 hours, was inoculated orally a culture broth of H. pylori ATCC 43504 Type strain upon 24 hours of culture. After administration of the culture broth, the Mongolian gerbil was fasted and deprived of water for about 4 hours, after which a normal solid feed and drinking water were given to Mongolian gerbils infected with H. pylori. Starting from 6 weeks after infection, the compound of the present invention and famotidine which is a histamine H2 antagonist were administered alone or in combination twice a day for 3 days. The compound of the present invention was administered orally and famotidine was subcutaneously administered immediately before administration of the compound of the present invention. After completion of the drug administration, Mongolian gerbils were sacrificed at day 3. The stomach was excised and incised along greater curvature and its content was removed. The stomach was homogenized in 10 ml of phosphate buffer--physiological saline. […] The medium was incubated under CO2 and the colonies of H. pylori were counted. A case where colonies were not detected was evaluated as the case of bacterial eradication. As a control, phosphate buffer--physiological saline was used.

In the test on H. pylori, `CC1(C)S[C@@H]2[C@H](NC(=O)[C@H](N)c3ccc(O)cc3)C(=O)N2[C@H]1C(=O)O` [amoxicillin, reference compound] returned an MIC of 0.025 µg/mL (≈ 0.0684 µM). The Eradication rate turned out to be 0% in test [1] (3.0 mg/kg) and 100% in test [1] (10.0 mg/kg).
In the case of `COc1c(N2CCO[C@@H](CN(C)C)C2)c(F)cc2c(=O)c(C(=O)O)cn(C3CC3)c12` [Y-34867, (S)-1-cyclopropyl-1,4-dihydro-7-[2-(N,N-dimethylaminomethyl)morpholino]-6-fluoro-8-methoxy-4-oxoquinoline-3-carboxylic acid], the MIC50 in test [2] (read-out: MIC50 (minimum concentration to inhibit growth in 50% of the test strains)) was 0.025 µg/mL (≈ 0.0596 µM). Besides, the MIC90 in test [2] (read-out: MIC90 (minimum concentration to inhibit growth in 90% of the test strains)) turned out to be 0.05 µg/mL (≈ 0.119 µM). The MIC against H. pylori amounted to 0.025 µg/mL (≈ 0.0596 µM). The Eradication rate in test [1] (0.3 mg/kg) turned out to be 0%; in test [1] (1.0 mg/kg) it was 80%; in test [1] (3.0 mg/kg), 100%; in test [3] (0.3 mg/kg, oral), 0%; in test [3] (1.0 mg/kg, oral), 60%; in test [3] (3.0 mg/kg, oral), 100%. The “bacterial eradication of H. pylori (in words)” value in test [1] was “evident bacterial eradication of H. pylori”. The “visual and histopathological repair of inflammatory state” value in test [1] and in test [3] was “promoted” each time. Further, the “bacterial eradication effect when concurrently administered with famotidine (in words)” value in test [3] (with famotidine subcutaneous) is reported as “the effect is enforced”. Also, in test [3] (without famotidine), the “bacterial eradication effect by single administration (in words)” value is given as “superior bacterial eradication effect”.
In the case of `NC(N)=Nc1nc(CSCCC(N)=NS(N)(=O)=O)cs1` [famotidine, reference compound], the Eradication rate in test [3] (100 mg/kg, subcutaneous) was 0%.

For the origin of these results see patent US6221864A, “Prophylactic or therapeutic agent for diseases attributable to infection with helicobacters” (priority 1997, dated 2001).
